Test results taken from patent publication US6897316B2, “Substituted 2-phenyl-4-quinolone-3-carboxylic acid compounds and their use as antitumor agents” (China Medical University, priority 2003, dated 2005).
In brackets after ≈: the same amount, converted by molar mass.

Columns and labels:
HGC2998 (colon cancer) = experiment: Growth inhibition in human cancer cell line panel, HGC2998; format: cell-based; details: 48 hr, SRB
Method: Compound IX-8 was evaluated growth inhibition activities against a panel of 39 human cancer cell lines including Human breast cancer MDA-MB-231 and the following human cancer cell lines were generously distributed by the National Cancer Institute (Frederick, Md.): lung cancer, NCI-H23, NCI-H226, NCI-H522, NCI-H460, A-549, DMS273 and DMS114; colon cancer, HGC-2998, KM-12, HT-29, HCT-15, and HCT-116; ovarian cancer, OVCAR-3, OVCAR-4, OVCAR-5, OVCAR-8, and SKOV-3; breast cancer, MCF-7; renal cancer, RXF-631L and ACHN; melanoma, LOX-IMVI; brain tumor, U251, SF-295, SF-539, SF-268, SNB-75, and SNB-78, and prostate cancer, DU-145 and PC-3. […]
The details of measuring cell growth inhibition are described elsewhere [Monks, A., Scudiero, D., Skehan, P., Shoemaker, R., Paull, K., Vistica, D., Hose, C., Langley, J., Cronise, P., Vaigro-Wolff, A., Gray-Goodrich, M., Campbell, H., Mayo, J., Boyd, M. Feasibility of a high-flux anticancer drug screen using a diverse panel of cultured human tumor cell lines. […] Then, the cell growth was determined according to the Sulforhodamine B assay, described by Skehan et al [Skehan, P., Storeng, R., Scudiero, D., Monks, A., McMahon, J., Vistica, D., Warren, J. T., Bokesch, H., Kenney, S., Boyd, M. R. New calorimetric cytotoxicity assay for anticancer-drug screening. […]

[1] = system: melanoma (SK-MEL-2) cell line; experiment: Activity against HTCL replication, SK-MEL-2; format: cell-based, human; details: mean ED50
Method: Compounds were assayed for in vitro cytotoxicity in a panel of human tumor cell lines at the School of Pharmacy, University of North Carolina at Chapel Hill, according to procedures described previously [Lee, K. H., Lin, Y. M., Wu, T. S., Zhang, D. C., Yamagishi, T., Hayashi, T., Hall, I. H., Chang, J. J., Wu, R. Y., Yang, T. H. The cytotoxic principles of Prunella vulgaris, Psychotria serpens, and Hyptis capitata: Ursolic acid and related derivatives. Planta Med. 1988, 54, 308-11; Boyd, M. R. Status of the National Cancer Institute preclinical antitumor drug discovery screen: implications for selection of new agents for clinical trial. Devita, V. T., Jr. Hellman, S., Rosenberg, S. A., Eds, J. B. Cancer: Principles and Practice of Oncology Update, 1989, 3: pp1-12, Lippincoft: Philadephia; Monks, A., Scudiero, D., Skehan, P., Shoemaker, R., Paull, K., Vistica, D., Hose, C., Langley, J., Cronise, P., Vaigro-Wolff, A., Gray-Goodrich, M., Campbell, H., Mayo, J., Boyd, M. Feasibility of a high-flux anticancer drug screen using a diverse panel of cultured human tumor cell lines. J. Natl. Cancer Inst. 1991, 83, 757-66.] […]

- GI50 (HGC2998 (colon cancer)): 138 nM
Compound: COc1ccc2[nH]c(-c3cccc(F)c3)c(C(=O)O)c(=O)c2c1 [IX-8, 3′-Fluoro-6-methoxy-2-phenyl-4-quinolone-3-carboxylic acid]
- ED50 SK-MEL-2 [1]: 0.16 µg/mL (≈ 0.511 µM)
